Where “and” joins values, the source holds several entries; their conditions need not be identical. Equal entries are not always repeated.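 A five-concentration, 48-hour dose response in 96-well plates underlies each endpoint, interpolated linearly between surrounding concentrations. GI50 marks 50% less growth.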 Calls of active or inactive are those of the source. Cut-off read from the data, not from the text of the source: active = GI50 up to about 1.1 µM and inactive = higher.
How the values were obtained:
Test in all cases: DTP human tumour cell line panel, 48 h
HCT-15 = tested on: HCT-15
LOX IMVI = tested on: LOX IMVI
Malme-3M = tested on: Malme-3M
SR = tested on: SR
MDA-MB-435 = tested on: MDA-MB-435
DU-145 = tested on: DU-145
PC-3 = tested on: PC-3
UO-31 = tested on: UO-31
UACC-62 = tested on: UACC-62
NCI-H522 = tested on: NCI-H522
MDA-N = tested on: MDA-N
IGROV-1 = tested on: IGROV-1
SW-620 = tested on: SW-620
A549 = tested on: A549
SNB-75 = tested on: SNB-75
CCRF-CEM = tested on: CCRF-CEM
SNB-19 = tested on: SNB-19
NCI-H23 = tested on: NCI-H23
ACHN = tested on: ACHN
SK-MEL-2 = tested on: SK-MEL-2
CAKI-1 = tested on: CAKI-1
MOLT-4 = tested on: MOLT-4
T47D = tested on: T47D
TK-10 = tested on: TK-10
NCI-H460 = tested on: NCI-H460
HT-29 = tested on: HT-29
MDA-MB-231 = tested on: MDA-MB-231
OVCAR-4 = tested on: OVCAR-4
A498 = tested on: A498
HL-60 = tested on: HL-60
OVCAR-5 = tested on: OVCAR-5
OVCAR-8 = tested on: OVCAR-8
SN12C = tested on: SN12C
U-251 = tested on: U-251
SK-MEL-5 = tested on: SK-MEL-5
786-0 = tested on: 786-0
NCI-H226 = tested on: NCI-H226
RPMI-8226 = tested on: RPMI-8226
SF-268 = tested on: SF-268
OVCAR-3 = tested on: OVCAR-3
M14 = tested on: M14
HCC 2998 = tested on: HCC 2998
BT-549 = tested on: BT-549
HCT-116 = tested on: HCT-116
HOP-62 = tested on: HOP-62
K562 = tested on: K562
SK-MEL-28 = tested on: SK-MEL-28
UACC-257 = tested on: UACC-257
SF-295 = tested on: SF-295
Hs-578T = tested on: Hs-578T
HOP-92 = tested on: HOP-92
NCI/ADR-RES = tested on: NCI/ADR-RES
MCF7 = tested on: MCF7
SF-539 = tested on: SF-539
COLO 205 = tested on: COLO 205
EKVX = tested on: EKVX
RXF 393 = tested on: RXF 393
KM12 = tested on: KM12

## Cc1cccc(/N=N/C(=O)NNc2cccc(C)c2C)c1C
HCT-15
  GI50: 38500 nM
LOX IMVI
  GI50: 25800 nM (inactive)
Malme-3M
  GI50: 21700 nM (inactive)
SR
  GI50: 33200 nM (inactive)
MDA-MB-435
  GI50: 26100 nM (inactive)
DU-145
  GI50: 37 µM (inactive)
PC-3
  GI50: 31500 nM (inactive)
UO-31
  GI50: 30800 nM (inactive)
UACC-62
  GI50: 29500 nM (inactive)
NCI-H522
  GI50: 24700 nM (inactive)
MDA-N
  GI50: 36300 nM (inactive)
IGROV-1
  GI50: 23900 nM (inactive)
SW-620
  GI50: 34000 nM (inactive)
A549
  GI50: 31200 nM (inactive)
SNB-75
  GI50: 54.3 µM (inactive)
CCRF-CEM
  GI50: > 10000 nM (inactive)
SNB-19
  GI50: 45800 nM (inactive)
NCI-H23
  GI50: 32700 nM (inactive)
ACHN
  GI50: 41700 nM (inactive)
SK-MEL-2
  GI50: 21900 nM (inactive)
CAKI-1
  GI50: 39000 nM (inactive)
MOLT-4
  GI50: > 10000 nM (inactive)
T47D
  GI50: 27200 nM (inactive)
TK-10
  GI50: 37700 nM (inactive)
NCI-H460
  GI50: 38500 nM (inactive)
HT-29
  GI50: 56.9 µM (inactive)
MDA-MB-231
  GI50: 47500 nM (inactive)
OVCAR-4
  GI50: 30.8 µM (inactive)
A498
  GI50: 34000 nM (inactive)
HL-60
  GI50: 24500 nM (inactive)
OVCAR-5
  GI50: 37 µM (inactive)
OVCAR-8
  GI50: 33300 nM (inactive)
SN12C
  GI50: 53100 nM (inactive)
U-251
  GI50: 35800 nM (inactive)
SK-MEL-5
  GI50: 28600 nM (inactive)
786-0
  GI50: 35200 nM (inactive)
NCI-H226
  GI50: 38800 nM (inactive)
RPMI-8226
  GI50: 29400 nM (inactive)
SF-268
  GI50: 34000 nM (inactive)
OVCAR-3
  GI50: 45.4 µM (inactive)
M14
  GI50: 41800 nM (inactive)
HCC 2998
  GI50: 15 µM (inactive)
BT-549
  GI50: 23.3 µM (inactive)
HCT-116
  GI50: 29400 nM (inactive)
HOP-62
  GI50: 20700 nM (inactive)
K562
  GI50: 33700 nM (inactive)
SK-MEL-28
  GI50: 43600 nM (inactive)
UACC-257
  GI50: 34700 nM (inactive)

## CC(C)(C)OC(=O)C1C(=O)NC(=O)CC1CC(OCc1ccccc1)C(OCc1ccccc1)C(COCc1ccccc1)OCc1ccccc1 (centres undefined)
DU-145
  GI50: > 100 µM (inactive) and 54 µM (inactive)
SNB-75
  GI50: 15 µM (inactive) and 11.1 µM (inactive)
SF-295
  GI50: 54.8 µM (inactive) and 28.3 µM (inactive)
T47D
  GI50: 29300 nM (inactive)
TK-10
  GI50: > 100000 nM (inactive)
HT-29
  GI50: 4.76 µM (inactive) and 8.24 µM (inactive)
OVCAR-4
  GI50: 31.6 µM (inactive) and 21.1 µM (inactive)
A498
  GI50: > 100000 nM (inactive)
OVCAR-5
  GI50: 35.6 µM (inactive) and 67.8 µM (inactive)
OVCAR-3
  GI50: 24.8 µM (inactive) and 31.3 µM (inactive)
Hs-578T
  GI50: 12 µM (inactive) and 23.8 µM (inactive)
HOP-92
  GI50: 17.5 µM (inactive) and 13 µM (inactive)
HCC 2998
  GI50: 30.8 µM (inactive) and 54.2 µM (inactive)
BT-549
  GI50: 24.9 µM (inactive) and 14.6 µM (inactive)

## C=CCC1C(O[Si](C)(C)C(C)(C)C)C(CO[Si](C)(C)C(C)(C)C)OC1n1ccc(=O)[nH]c1=O (centres undefined)
HCT-15
  GI50: 1150 nM
LOX IMVI
  GI50: 705 nM (active)
SR
  GI50: 2070 nM (inactive)
MDA-MB-435
  GI50: 1470 nM (inactive)
DU-145
  GI50: 1.52 µM (inactive)
NCI/ADR-RES
  GI50: 1660 nM (inactive)
PC-3
  GI50: 1530 nM (inactive)
UO-31
  GI50: 1360 nM (inactive)
UACC-62
  GI50: 1730 nM (inactive)
MDA-N
  GI50: 1510 nM (inactive)
IGROV-1
  GI50: 1410 nM (inactive)
MCF7
  GI50: 1150 nM (inactive)
SW-620
  GI50: 1160 nM (inactive)
A549
  GI50: 1380 nM (inactive)
SNB-75
  GI50: 1.24 µM (inactive)
CCRF-CEM
  GI50: 548 nM (active)
SNB-19
  GI50: 1610 nM (inactive)
NCI-H23
  GI50: 1290 nM (inactive)
ACHN
  GI50: 1600 nM (inactive)
SK-MEL-2
  GI50: 2140 nM (inactive)
CAKI-1
  GI50: 1630 nM (inactive)
SF-295
  GI50: 1.78 µM (inactive)
MOLT-4
  GI50: 597 nM (active)
T47D
  GI50: 1300 nM (inactive)
NCI-H460
  GI50: 1160 nM (inactive)
HT-29
  GI50: 1.44 µM (inactive)
MDA-MB-231
  GI50: 1790 nM (inactive)
OVCAR-4
  GI50: 1.15 µM (inactive)
A498
  GI50: 2030 nM (inactive)
SF-539
  GI50: 1600 nM (inactive)
OVCAR-5
  GI50: 1.28 µM (inactive)
OVCAR-8
  GI50: 1700 nM (inactive)
SN12C
  GI50: 1380 nM (inactive)
U-251
  GI50: 2200 nM (inactive)
COLO 205
  GI50: 1630 nM (inactive)
SK-MEL-5
  GI50: 1510 nM (inactive)
EKVX
  GI50: 1410 nM (inactive)
786-0
  GI50: 1150 nM (inactive)
NCI-H226
  GI50: 1510 nM (inactive)
RPMI-8226
  GI50: 1400 nM (inactive)
OVCAR-3
  GI50: 1.6 µM (inactive)
HOP-92
  GI50: 1.05 µM (active)
M14
  GI50: 1420 nM (inactive)
RXF 393
  GI50: 1800 nM (inactive)
HCC 2998
  GI50: 1.63 µM (inactive)
BT-549
  GI50: 1.93 µM (inactive)
HCT-116
  GI50: 1060 nM (active)
HOP-62
  GI50: 1980 nM (inactive)
KM12
  GI50: 1960 nM (inactive)
K562
  GI50: 1220 nM (inactive)
SK-MEL-28
  GI50: 1580 nM (inactive)
UACC-257
  GI50: 1680 nM (inactive)
